Assay results published in patent US7803930B2, “Antisense modulation of apolipoprotein B-expression” (Isis Pharmaceuticals, Inc., priority 2002, dated 2010).

Assays:
[1] = High fat fed C57BL/6 mice, 6 week timecourse: body, spleen, liver and fat pad weight; assay type: in vivo, mouse; details: six weeks, vs saline-treated controls
Description: Male C57BL/6 mice (n=8) receiving a high fat diet (60% kcal fat) were evaluated over the course of 6 weeks for the effects of ISIS 147764 on body, spleen, liver and fat pad weight. Control animals received saline treatment (50 mg/kg). […]
At study termination, animals were sacrificed 48 hours after the final injections and body, spleen, liver and fat pad weights were measured. Values are expressed as percent change in body weight or ogan weight compared to the saline-treated control animals. Negative values indicated a decrease in weight.

[2] = tested on: human apolipoprotein B protein; test: Transgenic mice dosing study (Example 52): serum human apolipoprotein B protein by ELISA; assay type: in vivo, human transgene in mouse
Description: A long-term study of inhibition of human apolipoprotein B by ISIS 301012 in C57BL/6NTac-TgN(APOB100) mice (Taconic, Germantown, N.Y.) was conducted for a 3 month period. Mice were dosed intraperitoneally twice a week with 10 or 25 mg/kg ISIS 301012 (SEQ ID No: 247) for 12 weeks. Saline-injected animals served as controls. Each treatment group comprised 4 animals.
After 2, 4, 6, 8 and 12 weeks of treatment, serum samples were collected for the purpose of measuring human apolipoprotein B protein. Serum protein was quantitated using an ELISA kit specific for human apolipoprotein B (ALerCHEK Inc., Portland, Me.). The data are shown in Table 30 and each result represents the average of 4 animals. Data are normalized to saline-treated control animals.

[3] = Long-term study in lean Cynomolgous monkeys (Example 64): serum lipids by nuclear magnetic resonance spectroscopy; assay type: in vivo, Cynomolgous monkey; details: one month
Description: […] Saline-treated animals serve as controls. Each treatment group includes 2 to 3 animals of each sex.
(§1) The results from the one month interval of the long term treatment are shown in Table 50 and are normalized to saline-treated animals for mRNA and to untreated baseline values for lipid levels. Total cholesterol, LDL-cholesterol, HDL-cholesterol, LDL particle concentration and triglyceride levels in serum were measured by nuclear magnetic resonance spectroscopy by Liposcience (Raleigh, N.C.). Additionally, the concentration of intact oligonucleotide in liver was measured by capillary gel electrophoresis and is presented as micrograms of oligonucleotide per gram of liver tissue. Each result represents the average of data from 4 animals (2 males and 2 females).

[4] = Long-term study in lean Cynomolgous monkeys (Example 64): intact oligonucleotide in liver by capillary gel electrophoresis; assay type: in vivo, Cynomolgous monkey; details: for antisense oligonucleotide concentration: liver tissue, one month
Description: as §1

Substance: GTCCCTGAAGATGTCAATGC (2'-MOE gapmer, further chemistry not given here) [ISIS 147764]
- Percent Change Fat (fat pad weight) ([1]; 5 mg/kg i.p.): 10%
- Percent Change Liver weight ([1]; 5 mg/kg i.p.): 18%
- Percent Change Spleen weight ([1]; 5 mg/kg i.p.): 10%
- Percent Change Total Body Wt. ([1]; 5 mg/kg i.p.): 5%
- Percent Change Fat (fat pad weight) ([1]; 25 mg/kg i.p.): 6%
- Percent Change Liver weight ([1]; 25 mg/kg i.p.): 70%
- Percent Change Spleen weight ([1]; 25 mg/kg i.p.): 10%
- Percent Change Total Body Wt. ([1]; 25 mg/kg i.p.): 5%
- Percent Change Fat (fat pad weight) ([1]; 50 mg/kg i.p.): −47%
- Percent Change Liver weight ([1]; 50 mg/kg i.p.): 80%
- Percent Change Spleen weight ([1]; 50 mg/kg i.p.): 46%
- Percent Change Total Body Wt. ([1]; 50 mg/kg i.p.): −4%

Substance: ISIS 301012: SEQ ID NO: 247, antisense oligonucleotide targeted to human apolipoprotein B (antisense GCCTCAGTCTGCTTCGCACC; chemistry not given here)
- % Reduction in human apolipoprotein B protein in serum ([2]; 10 mg/kg i.p. twice a week, 2 weeks): 76%
- % Reduction in human apolipoprotein B protein in serum ([2]; 10 mg/kg i.p. twice a week, 4 weeks): 78%
- % Reduction in human apolipoprotein B protein in serum ([2]; 10 mg/kg i.p. twice a week, 6 weeks): 73%
- % Reduction in human apolipoprotein B protein in serum ([2]; 10 mg/kg i.p. twice a week, 8 weeks): 42%
- % Reduction in human apolipoprotein B protein in serum ([2]; 10 mg/kg i.p. twice a week, 12 weeks): 85%
- % Reduction in human apolipoprotein B protein in serum ([2]; 25 mg/kg i.p. twice a week, 2 weeks): 80%
- % Reduction in human apolipoprotein B protein in serum ([2]; 25 mg/kg i.p. twice a week, 4 weeks): 87%
- % Reduction in human apolipoprotein B protein in serum ([2]; 25 mg/kg i.p. twice a week, 6 weeks): 86%
- % Reduction in human apolipoprotein B protein in serum ([2]; 25 mg/kg i.p. twice a week, 8 weeks): 47%
- % Reduction in human apolipoprotein B protein in serum ([2]; 25 mg/kg i.p. twice a week, 12 weeks): 79%
- lowering of human apolipoprotein B protein in serum (ELISA) ([2]; 10 or 25 mg/kg i.p. twice a week, 2, 4, 6 or 12 weeks): approximately 80%
- HDL-cholesterol, % change normalized to untreated baseline value ([3]; intravenous 2 mg/kg): −23%
- LDL Particle concentration, % change normalized to untreated baseline value ([3]; intravenous 2 mg/kg): +8%
- LDL-cholesterol, % change normalized to untreated baseline value ([3]; intravenous 2 mg/kg): +15%
- LDL/HDL, % change normalized to untreated baseline value ([3]; intravenous 2 mg/kg): +94%
- Total cholesterol, % change normalized to untreated baseline value ([3]; intravenous 2 mg/kg): −6%
- Total cholesterol/HDL, % change normalized to untreated baseline value ([3]; intravenous 2 mg/kg): +44%
- Triglyceride, % change normalized to untreated baseline value ([3]; intravenous 2 mg/kg): +26%
- HDL-cholesterol, % change normalized to untreated baseline value ([3]; intravenous 4 mg/kg): −15%
- LDL Particle concentration, % change normalized to untreated baseline value ([3]; intravenous 4 mg/kg): +8%
- LDL-cholesterol, % change normalized to untreated baseline value ([3]; intravenous 4 mg/kg): +9%
- LDL/HDL, % change normalized to untreated baseline value ([3]; intravenous 4 mg/kg): +38%
- Total cholesterol, % change normalized to untreated baseline value ([3]; intravenous 4 mg/kg): −2%
- Total cholesterol/HDL, % change normalized to untreated baseline value ([3]; intravenous 4 mg/kg): +22%
- Triglyceride, % change normalized to untreated baseline value ([3]; intravenous 4 mg/kg): +32%
- HDL-cholesterol, % change normalized to untreated baseline value ([3]; intravenous 12 mg/kg): −8%
- LDL Particle concentration, % change normalized to untreated baseline value ([3]; intravenous 12 mg/kg): −11%
- LDL-cholesterol, % change normalized to untreated baseline value ([3]; intravenous 12 mg/kg): +3%
- LDL/HDL, % change normalized to untreated baseline value ([3]; intravenous 12 mg/kg): +44%
- Total cholesterol, % change normalized to untreated baseline value ([3]; intravenous 12 mg/kg): −2%
- Total cholesterol/HDL, % change normalized to untreated baseline value ([3]; intravenous 12 mg/kg): +21%
- Triglyceride, % change normalized to untreated baseline value ([3]; intravenous 12 mg/kg): +15%
- HDL-cholesterol, % change normalized to untreated baseline value ([3]; subcutaneous 3.5 mg/kg): +13%
- LDL Particle concentration, % change normalized to untreated baseline value ([3]; subcutaneous 3.5 mg/kg): −14%
- LDL-cholesterol, % change normalized to untreated baseline value ([3]; subcutaneous 3.5 mg/kg): −4%
- LDL/HDL, % change normalized to untreated baseline value ([3]; subcutaneous 3.5 mg/kg): −15%
- Total cholesterol, % change normalized to untreated baseline value ([3]; subcutaneous 3.5 mg/kg): +5%
- Total cholesterol/HDL, % change normalized to untreated baseline value ([3]; subcutaneous 3.5 mg/kg): −7%
- Triglyceride, % change normalized to untreated baseline value ([3]; subcutaneous 3.5 mg/kg): +1%
- HDL-cholesterol, % change normalized to untreated baseline value ([3]; subcutaneous 20 mg/kg): +5%
- LDL Particle concentration, % change normalized to untreated baseline value ([3]; subcutaneous 20 mg/kg): −21%
- LDL-cholesterol, % change normalized to untreated baseline value ([3]; subcutaneous 20 mg/kg): −16%
- LDL/HDL, % change normalized to untreated baseline value ([3]; subcutaneous 20 mg/kg): −19%
- Total cholesterol, % change normalized to untreated baseline value ([3]; subcutaneous 20 mg/kg): −5%
- Total cholesterol/HDL, % change normalized to untreated baseline value ([3]; subcutaneous 20 mg/kg): −10%
- Triglyceride, % change normalized to untreated baseline value ([3]; subcutaneous 20 mg/kg): −3%
- antisense oligonucleotide concentration ([4]; intravenous 2 mg/kg): 92 µg/g
- antisense oligonucleotide concentration ([4]; intravenous 4 mg/kg): 179 µg/g
- antisense oligonucleotide concentration ([4]; intravenous 12 mg/kg): 550 µg/g
- antisense oligonucleotide concentration ([4]; subcutaneous 20 mg/kg): 855 µg/g
- accumulation of antisense oligonucleotide in the liver ([4]; one month interval): accumulates in the liver in a dose-dependent manner
